We go through 4 molecules from patent EP0607373B1, “TRISUBSTITUTED PHENYL DERIVATIVES AS SELECTIVE PHOSPHODIESTERASE IV INHIBITORS” (CELLTECH THERAPEUTICS LIMITED, priority 1992, dated 1993).

The test system of one series is PDE IV, HL60 cells. Description: Isolated enzyme phosphodiesterase assay, PDE IV. The class given is biochemical. The following applies: 0.1µM [3H]-cAMP, 30°C, pH 7.5, read-out: approximate Ki values (Ki PDE IV HL60 at (1µM)). The method, then:
The potency and selectivity of the compounds of the invention was determined using a battery of distinct PDE isoenzymes as follows: • i. PDE I, rabbit heart • ii. PDE II, rabbit heart • iii. PDE III, rabbit heart • iv. PDE IV, HL60 cells.
The enzymes were purified to kinetic homogeneity using standard chromatographic techniques.
Phosphodiesterase activity was assayed as follows. The reaction was conducted in 150µl of standard mixture containing (final concentrations): 50mM TES-NaOH buffer (pH 7.5), 10mM MgCl2, 0.1µM [^3H]-cAMP and vehicle or various concentrations of the test compounds. The reaction was initiated by addition of enzyme and conducted at 30°C for between 5 to 30 mins. The reaction was terminated by addition of 50µl 2% trifluoroacetic acid containing [^14C]-5'AMP for determining recovery of the product. An aliquot of the sample was then applied to a column of neutral alumina and the [^3H]-cAMP eluted with 10ml 0.1 TES-NaOH buffer (pH8). The [^3H]-5'-AMP product was eluted with 2ml 2M NaOH into a scintillation vial containing 10ml of scintillation cocktail. Recovery of [^3H]-5'AMP was determined using the [^14C]-5'AMP and all assays were conducted in the linear range of the reaction.

The subject of series [1] is Right atrial and papillary muscles. The note with it: reference inhibitors, general statement on these preparations; cited from earlier work.

Regarding `COc1ccc(NC(=O)c2ccccc2[N+](=O)[O-])cc1OC1CCCC1` [Example 3, 3-Cyclopentyloxy-4-methyloxy-N-(2-Nitrobenzoyl)aniline], the inhibition constant Ki with PDE IV, HL60 cells is ~179 nM.

Consider `Cc1[nH]c(=O)c(C#N)cc1-c1ccncc1` [milrinone], for which the “direct effects on isolated cardiac muscle (chronotropic, inotropic)” value in series [1] is “positive chronotropic and inotropic effects”.

With `COc1ccc(NC(=O)c2ccccc2)cc1OC1CCCC1` [Example 1, N-Benzoyl-3-cyclopentyloxy-4-methyloxyaniline], the Ki with PDE IV, HL60 cells was ~391 nM.

With `COc1ccc(C2CNC(=O)C2)cc1OC1CCCC1` (stereo not shown) [rolipram], in series [1], the “direct effects on isolated cardiac muscle (chronotropic, inotropic)” value is “do not have any direct effects”.
